According to the NIST ThermoML archive (doi:10.1016/j.jct.2011.07.018):

Columns and labels:
[1] = 298.15 K; 101.33 kPa; Liquid; Vibrating tube method
[2] = excess molar enthalpy (molar enthalpy of mixing); xn = mol fraction of the nth substance listed; details: 298.15 K, 101 kPa, Liquid, isothermal titration calorimeter

CCCCCCCCO [octan-1-ol]
Details	mass density [kg/m3]
[1]	821.67

CCCCCCCC(=O)O [octanoic acid]
Details	mass density [kg/m3]
[1]	906.02

CCCCCCCC(=O)O [octanoic acid] + CCCCCCO
[2]
Details	excess molar enthalpy [kcal/mol]
x2 = 0.038	0.0373
x2 = 0.074	0.065
x2 = 0.106	0.0868
x2 = 0.137	0.105
x2 = 0.167	0.12
x2 = 0.18	0.132
x2 = 0.186	0.135
x2 = 0.193	0.138
x2 = 0.201	0.141
x2 = 0.209	0.144
x2 = 0.218	0.147
x2 = 0.228	0.151
x2 = 0.239	0.154
x2 = 0.251	0.157
x2 = 0.261	0.16
x2 = 0.273	0.162
x2 = 0.286	0.165
x2 = 0.3	0.167
x2 = 0.31	0.169
x2 = 0.322	0.17
x2 = 0.334	0.172
x2 = 0.347	0.173
x2 = 0.361	0.174
x2 = 0.377	0.175
x2 = 0.394	0.176
x2 = 0.407	0.176
x2 = 0.422	0.175
x2 = 0.437	0.175
x2 = 0.454	0.174
x2 = 0.472	0.173
x2 = 0.492	0.171
x2 = 0.508	0.168
x2 = 0.526	0.166
x2 = 0.544	0.163
x2 = 0.564	0.158
x2 = 0.586	0.154
x2 = 0.607	0.148
x2 = 0.629	0.143
x2 = 0.65	0.137
x2 = 0.672	0.13
x2 = 0.696	0.123
x2 = 0.722	0.114
x2 = 0.749	0.105
x2 = 0.773	0.0966
x2 = 0.798	0.0872
x2 = 0.825	0.0765
x2 = 0.853	0.0645
x2 = 0.884	0.0528
x2 = 0.91	0.0409
x2 = 0.938	0.0282
x2 = 0.968	0.0146
